Test system: MV-4-11 cells
Test: Gene expression microarray analysis (Affymetrix PrimeView) and GSEA
Assay type: cell-based, human
Parameters: RFU PODN (11730768_x_at) / Fold change /veh PODN (11730768_x_at) / RFU LINC00158 (11744669_a_at) / Fold change /veh LINC00158 (11744669_a_at) / RFU DUSP10 (11751237_a_at) / Fold change /veh DUSP10 (11751237_a_at) / RFU ID3 (11757404_x_at) / Fold change /veh ID3 (11757404_x_at) / RFU PLEKHG5 (11737974_s_at) / Fold change /veh PLEKHG5 (11737974_s_at) / RFU LRRC4B (11730491_at) / Fold change /veh LRRC4B (11730491_at) / RFU GIMAP4 (11747438_a_at) / Fold change /veh GIMAP4 (11747438_a_at) / RFU KRT8 (11758183_x_at) / Fold change /veh KRT8 (11758183_x_at) / RFU CNN1 (11734310_a_at) / Fold change /veh CNN1 (11734310_a_at) / RFU VPS37D (11726825_at) / Fold change /veh VPS37D (11726825_at) / RFU C10orf10 (11716522_x_at) / Fold change /veh C10orf10 (11716522_x_at) / RFU KIR2DL2 /// KIR2DL4 /// KIR2DL5A /// KIR2DL5B /// KIR2DS1 /// KIR2DS2 /// KIR2DS3 /// KIR2DS4 /// KIR3DL3 /// KIR3DL3 /// KIR3DS1 (11738374_at) / Fold change /veh KIR2DL2 /// KIR2DL4 /// KIR2DL5A /// KIR2DL5B /// KIR2DS1 /// KIR2DS2 /// KIR2DS3 /// KIR2DS4 /// KIR3DL3 /// KIR3DL3 /// KIR3DS1 (11738374_at) / RFU C1QL1 (11718748_at) / Fold change /veh C1QL1 (11718748_at) / RFU TMPRSS4 (11747572_a_at) / Fold change /veh TMPRSS4 (11747572_a_at) / RFU HAMP (11756126_x_at) / Fold change /veh HAMP (11756126_x_at) / RFU RNFT2 (11725882_a_at) / Fold change /veh RNFT2 (11725882_a_at) / RFU NR4A2 (11747474_a_at) / Fold change /veh NR4A2 (11747474_a_at) / RFU ABCC12 (11746883_a_at) / Fold change /veh ABCC12 (11746883_a_at) / RFU TMEM136 (11760407_x_at) / Fold change /veh TMEM136 (11760407_x_at) / RFU CLDN22 /// WWC2 (11732394_at) / Fold change /veh CLDN22 /// WWC2 (11732394_at) / RFU HLA-DPB1 (11760878_x_at) / Fold change /veh HLA-DPB1 (11760878_x_at) / RFU SPINT1 (11716480_a_at) / Fold change /veh SPINT1 (11716480_a_at) / RFU GAP43 (11754022_s_at) / Fold change /veh GAP43 (11754022_s_at) / RFU A4GNT (11735810_at) / Fold change /veh A4GNT (11735810_at) / RFU PRB3 (11715151_x_at) / Fold change /veh PRB3 (11715151_x_at) / RFU TUBB4B (11761932_at) / Fold change /veh TUBB4B (11761932_at) / RFU CAPN14 (11732068_a_at) / Fold change /veh CAPN14 (11732068_a_at) / RFU TMCC2 (11721928_a_at) / Fold change /veh TMCC2 (11721928_a_at) / RFU IRGQ (11745062_a_at) / Fold change /veh IRGQ (11745062_a_at) / RFU FAM174B (11720279_a_at) / Fold change /veh FAM174B (11720279_a_at) / RFU TMPRSS4 (11748680_a_at) / Fold change /veh TMPRSS4 (11748680_a_at) / RFU FAM212B (11763350_a_at) / Fold change /veh FAM212B (11763350_a_at) / RFU PLEKHG5 (11743358_a_at) / Fold change /veh PLEKHG5 (11743358_a_at) / RFU ZSCAN30 (11745921_a_at) / Fold change /veh ZSCAN30 (11745921_a_at) / RFU CMKLR1 (11741424_a_at) / Fold change /veh CMKLR1 (11741424_a_at) / RFU LOC101060620 /// MAPK8IP1 (11723275_at) / Fold change /veh LOC101060620 /// MAPK8IP1 (11723275_at) / RFU SPTSSB (11747773_x_at) / Fold change /veh SPTSSB (11747773_x_at) / RFU PRSS12 (11739890_at) / Fold change /veh PRSS12 (11739890_at) / RFU BIN1 (11741810_x_at) / Fold change /veh BIN1 (11741810_x_at) / RFU WNT11 (11732464_a_at) / Fold change /veh WNT11 (11732464_a_at) / RFU C10orf10 (11716521_a_at) / Fold change /veh C10orf10 (11716521_a_at) / RFU C5orf56 (11738089_at) / Fold change /veh C5orf56 (11738089_at) / RFU CYB561 (11721691_x_at) / Fold change /veh CYB561 (11721691_x_at) / RFU ANKRD19P (11752326_a_at) / Fold change /veh ANKRD19P (11752326_a_at) / RFU OR2T12 /// OR2T33 /// OR2T8 (11738714_s_at) / Fold change /veh OR2T12 /// OR2T33 /// OR2T8 (11738714_s_at) / RFU VCAN (11748164_a_at) / Fold change /veh VCAN (11748164_a_at) / RFU JSRP1 (11732532_at) / Fold change /veh JSRP1 (11732532_at) / RFU KRTAP10-11 (11738290_x_at) / Fold change /veh KRTAP10-11 (11738290_x_at) / RFU MYO3A (11730013_a_at) / Fold change /veh MYO3A (11730013_a_at) / RFU EBF3 (11725865_a_at) / Fold change /veh EBF3 (11725865_a_at) / RFU CAMK2N1 (11719241_x_at) / Fold change /veh CAMK2N1 (11719241_x_at) / RFU C5orf56 (11738088_a_at) / Fold change /veh C5orf56 (11738088_a_at) / RFU OLFML3 (11715873_a_at) / Fold change /veh OLFML3 (11715873_a_at) / RFU LOC100653217 /// NTM (11731650_a_at) / Fold change /veh LOC100653217 /// NTM (11731650_a_at) / RFU MAPK11 (11762145_a_at) / Fold change /veh MAPK11 (11762145_a_at) / RFU FIZ1 (11724087_x_at) / Fold change /veh FIZ1 (11724087_x_at) / RFU OASL (11726364_x_at) / Fold change /veh OASL (11726364_x_at) / RFU SOX15 (11748057_x_at) / Fold change /veh SOX15 (11748057_x_at) / RFU CD79A (11719716_a_at) / Fold change /veh CD79A (11719716_a_at) / RFU HIST1H1D (11736915_at) / Fold change /veh HIST1H1D (11736915_at) / RFU CASKIN2 (11723855_a_at) / Fold change /veh CASKIN2 (11723855_a_at) / RFU LOC730098 (11760151_x_at) / Fold change /veh LOC730098 (11760151_x_at) / RFU OR4N2 (11742367_at) / Fold change /veh OR4N2 (11742367_at) / RFU PRRT2 (11749266_a_at) / Fold change /veh PRRT2 (11749266_a_at) / RFU SNX32 (11753110_a_at) / Fold change /veh SNX32 (11753110_a_at) / RFU CDHR5 (11726645_a_at) / Fold change /veh CDHR5 (11726645_a_at) / RFU RCAN1 (11760418_a_at) / Fold change /veh RCAN1 (11760418_a_at) / RFU FAM167A (11723789_a_at) / Fold change /veh FAM167A (11723789_a_at) / RFU FAM26E (11764081_at) / Fold change /veh FAM26E (11764081_at) / RFU ISYNA1 (11749810_s_at) / Fold change /veh ISYNA1 (11749810_s_at) / RFU ACY1 (11761880_at) / Fold change /veh ACY1 (11761880_at) / RFU 11764098_at / Fold change /veh 11764098_at / RFU SAMD14 (11745864_x_at) / Fold change /veh SAMD14 (11745864_x_at) / RFU NPB (11741838_a_at) / Fold change /veh NPB (11741838_a_at) / RFU TMPRSS6 (11731388_a_at) / Fold change /veh TMPRSS6 (11731388_a_at) / RFU KRTAP10-2 (11738614_at) / Fold change /veh KRTAP10-2 (11738614_at) / RFU ARHGAP8 /// PRR5-ARHGAP8 (11727945_x_at) / Fold change /veh ARHGAP8 /// PRR5-ARHGAP8 (11727945_x_at) / RFU KRTAP5-7 /// NADSYN1 (11734609_at) / Fold change /veh KRTAP5-7 /// NADSYN1 (11734609_at) / RFU RASL12 (11751679_a_at) / Fold change /veh RASL12 (11751679_a_at) / RFU CDKN2B (11736163_a_at) / Fold change /veh CDKN2B (11736163_a_at) / RFU PRF1 (11729649_at) / Fold change /veh PRF1 (11729649_at) / RFU, ZNF638 /// ZNF638-IT1 / Fold change vs veh, ZNF638 /// ZNF638-IT1 / RFU, PANK3 / Fold change vs veh, PANK3 / RFU, SH3YL1 / Fold change vs veh, SH3YL1 / RFU, ZEB2 / Fold change vs veh, ZEB2 / RFU, NRIP1 / Fold change vs veh, NRIP1 / RFU, PTTG1IP / Fold change vs veh, PTTG1IP / RFU, CAPN2 / Fold change vs veh, CAPN2 / RFU, MED14 / Fold change vs veh, MED14 / RFU, SNORA58 / Fold change vs veh, SNORA58 / RFU, C1orf63 / Fold change vs veh, C1orf63 / RFU, LRRFIP1 / Fold change vs veh, LRRFIP1 / RFU, NDUFAF7 / Fold change vs veh, NDUFAF7 / RFU, SLC12A2 / Fold change vs veh, SLC12A2 / RFU, IBTK / Fold change vs veh, IBTK / RFU, ESF1 / Fold change vs veh, ESF1 / Fold change vs veh, TMEM50B / RFU, TAOK1 / Fold change vs veh, TAOK1 / RFU, ACBD3 / Fold change vs veh, ACBD3 / RFU, TMA16 / Fold change vs veh, TMA16 / RFU, RWDD3 / Fold change vs veh, RWDD3 / RFU, BCAT1 / Fold change vs veh, BCAT1 / RFU, EDEM3 / Fold change vs veh, EDEM3 / RFU, TMEM33 / Fold change vs veh, TMEM33 / RFU, WDR75 / Fold change vs veh, WDR75 / RFU, AHCTF1 / Fold change vs veh, AHCTF1 / RFU, TFRC / Fold change vs veh, TFRC / RFU, ZDHHC17 / Fold change vs veh, ZDHHC17 / RFU, NOM1 / Fold change vs veh, NOM1 / RFU, ARL8B / Fold change vs veh, ARL8B / RFU, ZBTB11 / Fold change vs veh, ZBTB11 / RFU, TAMM41 / Fold change vs veh, TAMM41 / RFU, KIAA1704 /// LOC100996395 / Fold change vs veh, KIAA1704 /// LOC100996395 / RFU, ING1 / Fold change vs veh, ING1 / RFU, TRMT61B / Fold change vs veh, TRMT61B / RFU, FUBP3 / Fold change vs veh, FUBP3 / RFU, TP53 / Fold change vs veh, TP53 / RFU, TNKS2 / Fold change vs veh, TNKS2 / RFU, ZFP14 / Fold change vs veh, ZFP14 / RFU, ACTR2 / Fold change vs veh, ACTR2 / RFU, PPP3R1 / Fold change vs veh, PPP3R1 / RFU, PIK3R1 / Fold change vs veh, PIK3R1 / RFU, HNRNPA1 / Fold change vs veh, HNRNPA1 / RFU, RNF170 / Fold change vs veh, RNF170 / RFU, ZNF28 / Fold change vs veh, ZNF28 / RFU, RNGTT / Fold change vs veh, RNGTT / RFU, OGT / Fold change vs veh, OGT / RFU, BRD1 / Fold change vs veh, BRD1 / RFU, MARS / Fold change vs veh, MARS / RFU, ZNF655 / Fold change vs veh, ZNF655 / RFU, FAHD1 / Fold change vs veh, FAHD1 / RFU, BDP1 / Fold change vs veh, BDP1 / RFU, LRRCC1 / Fold change vs veh, LRRCC1 / RFU, ARID1A / Fold change vs veh, ARID1A / RFU, ZNF146 / Fold change vs veh, ZNF146 / RFU, ZNF330 / Fold change vs veh, ZNF330 / RFU, GPN3 / Fold change vs veh, GPN3 / RFU, C9orf123 / Fold change vs veh, C9orf123 / RFU, N4BP2L2 / Fold change vs veh, N4BP2L2 / RFU, ARFIP1 / Fold change vs veh, ARFIP1 / RFU, FAM179B / Fold change vs veh, FAM179B / RFU, BCL10 / Fold change vs veh, BCL10 / RFU, UHRF1BP1L / Fold change vs veh, UHRF1BP1L / RFU, BET1 / Fold change vs veh, BET1 / RFU, CNOT2 / Fold change vs veh, CNOT2 / RFU, ZNF268 / Fold change vs veh, ZNF268 / Fold change vs veh, ZNF507 / RFU, DGCR2 / Fold change vs veh, DGCR2 / RFU, WDSUB1 / Fold change vs veh, WDSUB1 / Fold change vs veh, HSP90B1 /// MIR3652 / RFU, ADSS / Fold change vs veh, ADSS / RFU, GK / Fold change vs veh, GK / RFU, ZNF148 / Fold change vs veh, ZNF148 / RFU, TAF9 / Fold change vs veh, TAF9 / RFU, SLC1A5 / Fold change vs veh, SLC1A5 / RFU, SLMO2 / Fold change vs veh, SLMO2 / RFU, ABCC4 / Fold change vs veh, ABCC4 / RFU, LOC101060439 /// RAP1B / Fold change vs veh, LOC101060439 /// RAP1B / RFU, RFX7 / Fold change vs veh, RFX7 / RFU, GTPBP10 / Fold change vs veh, GTPBP10 / RFU, CNEP1R1 / Fold change vs veh, CNEP1R1 / RFU, BIVM-ERCC5 /// ERCC5 / Fold change vs veh, BIVM-ERCC5 /// ERCC5 / RFU, ILF3 / Fold change vs veh, ILF3 / RFU 11762660_at / Fold change /veh 11762660_at / RFU VCAN (11757783_s_at) / Fold change /veh VCAN (11757783_s_at) / RFU DDX43 (11728927_at) / Fold change /veh DDX43 (11728927_at) / RFU KRT8 (11758188_x_at) / Fold change /veh KRT8 (11758188_x_at) / RFU NKD1 (11759106_at) / Fold change /veh NKD1 (11759106_at) / RFU SRD5A1 (11742802_a_at) / Fold change /veh SRD5A1 (11742802_a_at) / RFU TPSAB1 /// TPSB2 (11721975_s_at) / Fold change /veh TPSAB1 /// TPSB2 (11721975_s_at) / RFU GSTM3 (11746129_a_at) / Fold change /veh GSTM3 (11746129_a_at) / RFU IL23R (11737362_x_at) / Fold change /veh IL23R (11737362_x_at) / RFU TMEM51 (11727254_a_at) / Fold change /veh TMEM51 (11727254_a_at) / RFU PIWIL2 (11732686_x_at) / Fold change /veh PIWIL2 (11732686_x_at) / RFU ORM1 (11744905_x_at) / Fold change /veh ORM1 (11744905_x_at) / RFU CCDC152 (11743942_at) / Fold change /veh CCDC152 (11743942_at) / RFU ECM1 (11717891_a_at) / Fold change /veh ECM1 (11717891_a_at) / RFU IL23R (11748794_a_at) / Fold change /veh IL23R (11748794_a_at) / RFU TNFAIP8L3 (11732012_x_at) / Fold change /veh TNFAIP8L3 (11732012_x_at) / RFU MBOAT4 (11741988_at) / Fold change /veh MBOAT4 (11741988_at) / RFU 11764193_at / Fold change /veh 11764193_at / RFU TMEM53 (11763286_at) / Fold change /veh TMEM53 (11763286_at) / RFU MAGEB2 (11727129_at) / Fold change /veh MAGEB2 (11727129_at) / RFU TMEM200A (11744735_a_at) / Fold change /veh TMEM200A (11744735_a_at) / RFU CCDC152 (11751479_a_at) / Fold change /veh CCDC152 (11751479_a_at) / RFU FAM211A (11726209_a_at) / Fold change /veh FAM211A (11726209_a_at) / RFU RGS16 (11746705_a_at) / Fold change /veh RGS16 (11746705_a_at) / RFU VCAN (11755009_s_at) / Fold change /veh VCAN (11755009_s_at) / RFU RHOB (11743442_s_at) / Fold change /veh RHOB (11743442_s_at) / RFU RGS16 (11720943_a_at) / Fold change /veh RGS16 (11720943_a_at) / RFU RGS16 (11720944_at) / Fold change /veh RGS16 (11720944_at) / RFU, VPS4B / Fold change vs veh, VPS4B / RFU, CREB1 / Fold change vs veh, CREB1 / RFU, DNAJC13 / Fold change vs veh, DNAJC13 / RFU, GNAQ / Fold change vs veh, GNAQ / RFU, CDK5R1 / Fold change vs veh, CDK5R1 / RFU, ZRANB3 / Fold change vs veh, ZRANB3 / RFU, CUL4A / Fold change vs veh, CUL4A / RFU, CCNY / Fold change vs veh, CCNY / RFU, UFL1 / Fold change vs veh, UFL1 / RFU, COG3 / Fold change vs veh, COG3 / RFU, DIAPH2 / Fold change vs veh, DIAPH2 / RFU, SKA2 / Fold change vs veh, SKA2 / RFU, AFF3 / Fold change vs veh, AFF3 / RFU, LMF1 / Fold change vs veh, LMF1 / RFU, IPO11 / Fold change vs veh, IPO11 / RFU, DFFB / Fold change vs veh, DFFB / RFU, FOXP1 / Fold change vs veh, FOXP1 / RFU, CARD8 / Fold change vs veh, CARD8 / RFU, STRN3 / Fold change vs veh, STRN3 / RFU, ADK / Fold change vs veh, ADK / RFU, RASSF2 / Fold change vs veh, RASSF2 / RFU, WIPF1 / Fold change vs veh, WIPF1 / RFU, LARP1B / Fold change vs veh, LARP1B / RFU, RASA1 / Fold change vs veh, RASA1 / RFU, RB1 / Fold change vs veh, RB1 / RFU, PPFIA1 / Fold change vs veh, PPFIA1 / RFU, MAT2A / Fold change vs veh, MAT2A / RFU, CCT5 / Fold change vs veh, CCT5 / RFU, WDR92 / Fold change vs veh, WDR92 / RFU, CUX1 / Fold change vs veh, CUX1 / RFU, TTC7A / Fold change vs veh, TTC7A / RFU, TMEM135 / Fold change vs veh, TMEM135 / RFU, DEPTOR / Fold change vs veh, DEPTOR / RFU, CPM / Fold change vs veh, CPM / RFU, DNAJB6 / Fold change vs veh, DNAJB6 / RFU, CACNA2D3 / Fold change vs veh, CACNA2D3 / RFU, DTX4 / Fold change vs veh, DTX4 / RFU, TFCP2 / Fold change vs veh, TFCP2 / RFU, GMCL1 /// GMCL1P1 / Fold change vs veh, GMCL1 /// GMCL1P1 / RFU, AEBP2 / Fold change vs veh, AEBP2 / RFU, SNHG1 /// SNORD22 /// SNORD25 /// SNORD26 /// SNORD27 /// SNORD28 /// SNORD29 /// SNORD31 / Fold change vs veh, SNHG1 /// SNORD22 /// SNORD25 /// SNORD26 /// SNORD27 /// SNORD28 /// SNORD29 /// SNORD31 / Fold change (Aza/veh), C12orf56 (ProbeSet 11735607_a_at) / Fold change (ACY-1035/veh), C12orf56 (ProbeSet 11735607_a_at) / Fold change (Aza/veh), FGFR1OP (ProbeSet 11751329_s_at) / Fold change (ACY-1035/veh), FGFR1OP (ProbeSet 11751329_s_at) / Fold change (Aza/veh), VPS36 (ProbeSet 11739960_a_at) / Fold change (ACY-1035/veh), VPS36 (ProbeSet 11739960_a_at) / RFU SYPL1 (11715823_x_at) / Fold change /veh SYPL1 (11715823_x_at) / RFU IGFBP7 (11715501_s_at) / Fold change /veh IGFBP7 (11715501_s_at) / RFU REEP3 (11722064_at) / Fold change /veh REEP3 (11722064_at) / RFU IGLL1 (11728026_x_at) / Fold change /veh IGLL1 (11728026_x_at): dose or concentration left out as unconfirmed
Details: MV-4-11 cells, 48 hours

Nc1ccc(-c2cccs2)cc1NC(=O)c1ccc2c(c1)cc(C1CC1)n2CCN1CCOCC1 [ACY-1035]
RFU NKD1 (11759106_at): 19.24 RFU
